Nine compounds from ChEMBL document CHEMBL1201862, “PubChem BioAssay data set” (2004) can be followed below.

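48-hour exposure; five concentrations; linearly interpolated endpoints. GI50 marks 50% less growth.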 Active and inactive are the calls of the source. Rule as the data show it: active = GI50 up to about 1.1 µM and inactive = higher.

Among the test systems are 786-0; NCI-H23; SF-539; MDA-MB-231; SK-MEL-28; HCC 2998; Malme-3M; COLO 205; SK-MEL-5; OVCAR-5; HCT-15; K562; HCT-116; NCI-H460; HOP-92; M14; KM12; SF-295.
Assay in all cases: NCI anticancer screen, dose series, 48 h

For `COC(=O)Cc1cc2c(cc1C(=O)c1ccc(N)cc1)OCO2`, the GI50 in the test with 786-0 is 5.58 µM (inactive); in the test on NCI-H23, 5.68 µM (inactive); in the test on SF-539, 2.9 µM (inactive); in the test on MDA-MB-231, 3.42 µM (inactive); in the test with SK-MEL-28 it was 3.36 µM (inactive); in the test with HCC 2998 it was 0.78 µM (active). The GI50 is > 100 µM (inactive) in the test with Malme-3M; 1.21 µM (inactive) in the test with COLO 205; 0.435 µM (active) in the test with SK-MEL-5; 6.46 µM (inactive) in the test with OVCAR-5; 1.1 µM in the test with HCT-15; 0.553 µM (active) in the test on K562. For the same compound, the GI50 in the test on HCT-116 is 1.77 µM (inactive); in the test on NCI-H460, 12.2 µM (inactive); in the test with HOP-92, 2.37 µM (inactive); in the test on M14, 1.64 µM (inactive); in the test with KM12, 0.488 µM (active); with SF-295 it was 1.12 µM (active).

Regarding `O=C1OC(C(O)CO)C(O)=C1O` (configuration not stated), the GI50 in the test with 786-0, in the test with NCI-H23, in the test on SF-539, in the test on MDA-MB-231, in the test on SK-MEL-28 and in the test with HCC 2998 was > 100 µM (inactive) throughout. Besides, the GI50 with Malme-3M was > 100 µM (inactive); with COLO 205, > 100 µM (inactive); in the test on SK-MEL-5 it was > 100 µM (inactive); in the test on OVCAR-5, > 100 µM (inactive); in the test with HCT-15 it was above 100 µM; in the test with K562, 65.8 µM (inactive). The GI50 in the test on HCT-116, in the test on NCI-H460, in the test on HOP-92, with M14, in the test with KM12 and with SF-295 was > 100 µM (inactive) throughout.

For `COc1ccc(N2C(=O)C3c4[nH]c5cccc(C)c5c4C4CCC(C(C)(C)C)CC4C3C2=O)cc1` (configuration not stated), the GI50 with NCI-H23, in the test with SF-539, in the test with MDA-MB-231, in the test on SK-MEL-28, with HCC 2998 and with Malme-3M was > 10 µM (inactive) throughout. The GI50 was > 10 µM (inactive) in the test with COLO 205; > 10 µM (inactive) in the test on SK-MEL-5; > 10 µM (inactive) in the test with OVCAR-5; above 10 µM with HCT-15; > 10 µM (inactive) in the test on K562; 5.62 µM (inactive) in the test with HCT-116. Moreover, the GI50 with NCI-H460 is 4.68 µM (inactive); in the test with M14 it was > 10 µM (inactive); with KM12, > 10 µM (inactive); in the test on SF-295 it was > 10 µM (inactive).

In the case of `SC1=NC2=C(CSC/C2=C\c2ccc(Cl)cc2)C(c2ccc(Cl)cc2)N1` (configuration not stated), the GI50 with 786-0 is 26.5 µM (inactive); in the test with NCI-H23, 46.9 µM (inactive); in the test on MDA-MB-231, 35.2 µM (inactive); in the test with SK-MEL-28, > 100 µM (inactive); in the test on HCC 2998, 25.4 µM (inactive); in the test with Malme-3M, 26.4 µM (inactive). Also, the GI50 in the test on COLO 205 was 17.3 µM (inactive); in the test with SK-MEL-5, 19.1 µM (inactive); in the test with OVCAR-5 it was 72.4 µM (inactive); in the test with HCT-15, 34 µM; in the test with K562 it was 28.6 µM (inactive); in the test on HCT-116 it was 27.5 µM (inactive). Also, the GI50 was 31.4 µM (inactive) in the test with NCI-H460, 29.5 µM (inactive) in the test with HOP-92, 25.9 µM (inactive) in the test on KM12 and 42.2 µM (inactive) in the test with SF-295.

With `CC1(CO)COC(C)(C)OC1`, the GI50 in the test on NCI-H23, with MDA-MB-231, in the test with SK-MEL-28, in the test with HCC 2998, in the test on COLO 205 and in the test with SK-MEL-5 was > 100 µM (inactive) throughout. Further, the GI50 with HCT-15 was above 100 µM; with HCT-116, > 100 µM (inactive); with NCI-H460 it was > 100 µM (inactive); in the test with HOP-92, > 100 µM (inactive); in the test with KM12, > 100 µM (inactive); with SF-295, > 100 µM (inactive).

Regarding `CCOP(=O)(O)C(C)(C)NC`, the GI50 in the test with 786-0, with NCI-H23, with SF-539, in the test on MDA-MB-231, with SK-MEL-28 and in the test with HCC 2998 was > 100 µM (inactive) in each case. Also, the GI50 was > 100 µM (inactive) in the test on Malme-3M; > 100 µM (inactive) with COLO 205; > 100 µM (inactive) in the test with SK-MEL-5; > 100 µM (inactive) with OVCAR-5; above 100 µM in the test on HCT-15; > 100 µM (inactive) in the test with K562. The GI50 in the test on HCT-116, in the test with NCI-H460, in the test on HOP-92, in the test on M14, in the test on KM12 and in the test with SF-295 was > 100 µM (inactive) in each case.

For `C=C(Br)CNC(=O)CCC(=O)NCC(=C)Br`, the GI50 in the test with 786-0, in the test with NCI-H23, with SF-539, in the test with MDA-MB-231, with SK-MEL-28 and with HCC 2998 was > 100 µM (inactive) each time. Also, the GI50 in the test with Malme-3M was > 100 µM (inactive); in the test with COLO 205, > 100 µM (inactive); with SK-MEL-5 it was > 100 µM (inactive); with OVCAR-5, > 100 µM (inactive); in the test with HCT-15, above 100 µM; in the test on K562 it was > 100 µM (inactive). In addition, the GI50 in the test with HCT-116, in the test with NCI-H460, in the test with M14, with KM12 and with SF-295 was > 100 µM (inactive) each time.

`COc1ccc(/N=N/c2c(-c3ccccc3)nn(C(=O)CC(=O)Nc3ccc(OC)cc3)c2-c2ccccc2)cc1`: the GI50 with 786-0 is 48.6 µM (inactive); with NCI-H23 it was 33 µM (inactive); in the test on SF-539 it was 18.6 µM (inactive); in the test on SK-MEL-28, > 100 µM (inactive); in the test with HCC 2998, > 100 µM (inactive); with Malme-3M, > 100 µM (inactive). In addition, the GI50 was > 100 µM (inactive) in the test on COLO 205; > 100 µM (inactive) in the test on SK-MEL-5; > 100 µM (inactive) in the test with OVCAR-5; above 100 µM in the test on HCT-15; 27 µM (inactive) with K562; 60 µM (inactive) in the test with HCT-116. Also, the GI50 in the test with NCI-H460 is > 100 µM (inactive); in the test with HOP-92 it was 16 µM (inactive); in the test with KM12 it was > 100 µM (inactive); in the test with SF-295, 21.1 µM (inactive).

Take `N#Cc1c(N)oc(-c2cccc([N+](=O)[O-])c2)c1C#N`: the GI50 in the test with 786-0 is 27.7 µM (inactive); with NCI-H23 it was 21.4 µM (inactive); with SF-539 it was 23.2 µM (inactive); in the test with MDA-MB-231, 37.1 µM (inactive); with SK-MEL-28, 19.5 µM (inactive); with HCC 2998 it was 19.5 µM (inactive). The GI50 in the test on Malme-3M was 24.4 µM (inactive); in the test with COLO 205, 20.9 µM (inactive); with SK-MEL-5, 19.6 µM (inactive); with OVCAR-5, 82.4 µM (inactive); in the test on HCT-15, 16.1 µM; in the test with HCT-116, 33.7 µM (inactive). For the same compound, the GI50 in the test on HOP-92 was 17.4 µM (inactive); with M14, 46.9 µM (inactive); in the test on KM12 it was > 10 µM (inactive); in the test on SF-295, > 100 µM (inactive).
